From US20170311603A1 (priority 2014, published 2017)

Columns and labels:
[1] = test system: B. cinerea B0510; assay: Mycelial growth of B. cinerea on supplemented PDA medium (Example 2); type: cell-based, Botrytis cinerea; details: after 8 days, versus control (100%)
[2] = test system: N. parvum isolate Bourgogne S-116; assay: Mycelial growth of N. parvum on supplemented PDA medium (Example 1); type: cell-based, Neofusicoccum parvum; details: after 4 days, versus control (100%)
[3] = test system: N. parvum isolate Bourgogne S-116; parameters: species or system V. vinifera L. cv. Chardonnay; details: in vivo
[4] = test system: Calli of V. vinifera cv. Chardonnay; assay: Phytotoxicity on grapevine cell clusters (calli) (Example 4); type: cell-based, V. vinifera L. cv. Chardonnay; details: for appearance and color of the calli: MPM1 medium supplemented with 5 or 10 mM
Description: Calli (or undifferentiated cell clusters) of V. vinifera cv. Chardonnay are obtained from anthers as described in Mauro et al. (1986) and in Bertsch et al. (2005).
All the calli are inoculated on fresh solid MPM1 medium (Perrin et al. 2004) every 3 weeks and incubated at 25±0.5° C. in the dark with a relative humidity of 70±10%.
This experiment was repeated three times. For each condition, 15 white-yellow calli, with a diameter of 10±2 mm, were used.
Calli growth in each condition tested is evaluated by weighing each day for 5 days. Duncan's statistical test (with p≦0.05) was applied to the means and standard deviations of the results thus obtained. In addition to weighing, we visually evaluate the appearance and color of the calli according to their culture medium for 2 months.

Row | SMILES | inhibition of the growth of the fungus on the culture medium [1] | inhibition of the growth of the fungus on the culture medium [2] | reduction in the surface area of the necrotic lesions [3] | appearance and color of the calli [4] | growth of the calli (weighing) ([4]; supplemented MPM1 medium, 5 days of culture) | inhibition of the development of necrosis on the inoculated internodes [3]
1 | [O-2].[O-2].[O-2].[Sb+3].[Sb+3] [antimony oxide] | do not significantly inhibit the growth of the fungus | do not significantly inhibit the growth of the fungus | – | – | – | –
2 | O=C([O-])CC(O)(CC(=O)[O-])C(=O)[O-].[Bi+3] [bismuth citrate] | do not significantly inhibit the growth of the fungus | do not significantly inhibit the growth of the fungus | – | – | – | –
3 | [Bi+3].[Bi+3].[O-2].[O-2].[O-2] [bismuth oxide] | do not significantly inhibit the growth of the fungus | do not significantly inhibit the growth of the fungus | 5% | no change | – | –
4 | O=C1[O][Bi]([OH])[O]c2ccccc21 [bismuth subsalicylate] | – | – | – | light grayish coloring at the periphery of the calli but no necrosis | no impact in terms of growth, multiplication or necrotic appearance | –
5 | O=C(O)c1ccccc1O [salicylic acid] | – | – | – | light grayish coloring at the periphery of the calli but no necrosis | – | does not significantly inhibit the development of necrosis
